# Measured values published in ChEMBL document CHEMBL2346553, “Synthesis and evaluation of non-dimeric HCV NS5A inhibitors” (Bioorg Med Chem Lett, 2013).
# Key:
# Cytochrome P450 2D6 = Cytochrome P450 2D6 (Homo sapiens, UniProt P10635)
# Cytochrome P450 2C9 = Cytochrome P450 2C9 (Homo sapiens, UniProt P11712)
# Cytochrome P450 1A2 = target: T1, Cytochrome P450 1A2 (Homo sapiens, UniProt P05177)
# T1 sequence (P05177 whole entry): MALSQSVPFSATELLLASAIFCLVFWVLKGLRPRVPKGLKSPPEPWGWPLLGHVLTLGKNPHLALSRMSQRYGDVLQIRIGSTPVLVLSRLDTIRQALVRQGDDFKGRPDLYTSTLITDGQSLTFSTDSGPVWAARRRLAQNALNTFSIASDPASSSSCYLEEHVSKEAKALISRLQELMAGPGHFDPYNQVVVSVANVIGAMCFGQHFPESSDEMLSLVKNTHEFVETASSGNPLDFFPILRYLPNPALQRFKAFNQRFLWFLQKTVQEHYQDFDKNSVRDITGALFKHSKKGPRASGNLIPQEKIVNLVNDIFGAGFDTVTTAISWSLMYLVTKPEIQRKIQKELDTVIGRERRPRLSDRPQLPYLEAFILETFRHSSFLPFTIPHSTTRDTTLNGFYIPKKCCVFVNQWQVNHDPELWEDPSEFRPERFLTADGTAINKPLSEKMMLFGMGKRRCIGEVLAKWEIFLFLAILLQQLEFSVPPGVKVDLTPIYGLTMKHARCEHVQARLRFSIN
# Cytochrome P450 3A4 = Cytochrome P450 3A4 (Homo sapiens, UniProt P08684)
# Sequence of Cytochrome P450 3A4 (P08684 whole entry): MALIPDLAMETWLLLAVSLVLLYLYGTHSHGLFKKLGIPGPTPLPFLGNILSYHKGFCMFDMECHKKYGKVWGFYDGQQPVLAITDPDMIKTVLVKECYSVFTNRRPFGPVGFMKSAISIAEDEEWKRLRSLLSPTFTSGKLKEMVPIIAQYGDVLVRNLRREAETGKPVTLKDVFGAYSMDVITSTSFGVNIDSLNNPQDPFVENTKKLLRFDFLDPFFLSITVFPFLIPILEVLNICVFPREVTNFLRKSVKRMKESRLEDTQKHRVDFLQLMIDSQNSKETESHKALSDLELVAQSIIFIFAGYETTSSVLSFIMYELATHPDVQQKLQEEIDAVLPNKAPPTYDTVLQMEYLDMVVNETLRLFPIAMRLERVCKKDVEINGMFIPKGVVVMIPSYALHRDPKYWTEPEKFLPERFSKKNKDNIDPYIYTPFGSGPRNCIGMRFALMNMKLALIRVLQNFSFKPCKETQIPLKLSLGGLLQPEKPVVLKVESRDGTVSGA
# Vero = settings: chlorocebus sabaeus
# CCRF-CEM = settings: human
# PBMC = settings: human
# in vitro [1] = settings: human, HuH7 cells
# CYP2D6 = CYP2D6 (Homo sapiens, UniProt P10635); test: in vitro
# Sequence of CYP2D6 (P10635 whole entry): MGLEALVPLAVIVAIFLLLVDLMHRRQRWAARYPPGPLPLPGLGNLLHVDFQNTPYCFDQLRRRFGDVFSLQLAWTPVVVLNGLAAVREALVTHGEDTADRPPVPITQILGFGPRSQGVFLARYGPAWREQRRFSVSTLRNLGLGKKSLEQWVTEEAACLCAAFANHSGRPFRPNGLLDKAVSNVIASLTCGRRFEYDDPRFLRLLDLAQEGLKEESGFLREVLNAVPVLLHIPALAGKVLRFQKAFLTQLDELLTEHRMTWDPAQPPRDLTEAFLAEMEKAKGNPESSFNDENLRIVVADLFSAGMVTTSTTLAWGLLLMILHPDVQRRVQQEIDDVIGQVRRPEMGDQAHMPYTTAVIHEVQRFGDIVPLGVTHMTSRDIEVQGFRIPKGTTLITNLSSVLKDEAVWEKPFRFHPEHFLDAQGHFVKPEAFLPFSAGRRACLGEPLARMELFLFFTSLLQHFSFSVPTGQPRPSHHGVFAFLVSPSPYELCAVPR
# CYP2C9 = CYP2C9 (Homo sapiens, UniProt P11712); test: in vitro
# Sequence of CYP2C9 (P11712 whole entry): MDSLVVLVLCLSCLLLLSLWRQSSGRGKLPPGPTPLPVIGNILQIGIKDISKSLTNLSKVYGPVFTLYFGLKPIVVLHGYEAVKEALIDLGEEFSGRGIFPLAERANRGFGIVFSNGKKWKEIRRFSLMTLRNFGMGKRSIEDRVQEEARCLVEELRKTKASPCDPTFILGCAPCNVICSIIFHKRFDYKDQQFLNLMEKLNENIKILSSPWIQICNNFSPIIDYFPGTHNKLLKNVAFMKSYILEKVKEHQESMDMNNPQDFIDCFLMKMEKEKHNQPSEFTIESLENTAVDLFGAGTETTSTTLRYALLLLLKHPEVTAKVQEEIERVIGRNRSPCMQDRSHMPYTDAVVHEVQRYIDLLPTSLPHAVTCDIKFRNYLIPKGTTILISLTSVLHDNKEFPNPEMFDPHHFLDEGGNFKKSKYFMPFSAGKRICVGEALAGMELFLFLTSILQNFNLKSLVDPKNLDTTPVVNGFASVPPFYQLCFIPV
# CYP1A2 = target: T2, CYP1A2 (Homo sapiens, UniProt P05177); test: in vitro
# T2 sequence (P05177 whole entry): T1 sequence (P05177 whole entry)
# CYP3A4 = CYP3A4 (Homo sapiens, UniProt P08684); test: in vitro
# Sequence of CYP3A4 (P08684 whole entry): as the sequence (P08684 whole entry) above
# Hepatitis C virus = test: microbe, parasite or virus in culture; settings: genotype 1b, Huh-7
# in vitro [2] = settings: chlorocebus sabaeus, Vero cells
# in vitro [3] = settings: human, CEM cells
# in vitro [4] = settings: human, pbmc
# Sequence of Cytochrome P450 2C9 (P11712 whole entry): as the sequence (P11712 whole entry) above
# Sequence of Cytochrome P450 2D6 (P10635 whole entry): as the sequence (P10635 whole entry) above
Structure (SMILES),IC50 (Cytochrome P450 2D6) [µM],IC50 (Cytochrome P450 2C9) [µM],IC50 (Cytochrome P450 1A2) [µM],IC50 (Cytochrome P450 3A4) [µM],CC50 (Vero) [µM],CC50 (CCRF-CEM) [µM],CC50 (PBMC) [µM],CC50 (in vitro [1]) [µM],IC90 (CYP2D6) [µM],IC90 (CYP2C9) [µM],IC90 (CYP1A2) [µM],IC90 (CYP3A4) [µM],EC50 (Hepatitis C virus) [µM],EC90 (Hepatitis C virus) [µM],CC50 (in vitro [2]) [µM],CC50 (in vitro [3]) [µM],CC50 (in vitro [4]) [µM]
COC(=O)N[C@H](C(=O)N1CCC[C@H]1c1ncc(-c2ccc(N=[N+]=[N-])cc2)[nH]1)C(C)C,> 100,> 100,> 100,5.1,> 100,> 100,> 100,> 1,> 100,> 100,> 100,96.1,0.008,0.052,–,–,–
COC(=O)N[C@H](C(=O)N1CCC[C@H]1c1nc(Br)c(-c2ccc(N=[N+]=[N-])cc2)[nH]1)C(C)C,50.5,50.5,80.9,1.5,16,52,35,> 1,> 100,> 100,> 100,46.1,0.0007,0.0029,–,–,–
COC(=O)N[C@H](C(=O)N1CCC[C@H]1c1nc(-c2ccc(-c3ccc(C(F)(F)F)cc3)cc2)c[nH]1)C(C)C,62.1,9.1,82.9,6.5,14,12,> 100,> 1,> 100,> 100,> 100,> 100,0.0046,0.0096,–,–,–
COC(=O)N[C@H](C(=O)N1CCC[C@H]1c1ncc(-c2ccc(-c3ccccc3C(F)(F)F)cc2)[nH]1)C(C)C,–,–,–,–,–,–,–,> 1,–,–,–,–,> 0.1,–,13,75,24
COC(=O)N[C@H](C(=O)N1CCC[C@H]1c1ncc(-c2ccc(-c3cccc(C(F)(F)F)c3)cc2)[nH]1)C(C)C,–,–,–,–,–,–,–,> 1,–,–,–,–,> 0.1,–,12,32,44
COC(=O)N[C@H](C(=O)N1CCC[C@H]1c1ncc(-c2ccc(-c3ccc(OC(F)(F)F)cc3)cc2)[nH]1)C(C)C,–,–,–,–,–,–,–,> 1,–,–,–,–,> 0.1,–,10,10,11
COC(=O)N[C@H](C(=O)N1CCC[C@H]1c1ncc(-c2ccc(-c3ccc(O)cc3)cc2)[nH]1)C(C)C,–,–,–,–,–,–,–,> 1,–,–,–,–,0.005,0.017,13,55,70
COC(=O)N[C@H](C(=O)N1CCC[C@H]1c1nc(-c2ccc(-c3ccc(CO)cc3)cc2)c[nH]1)C(C)C,> 100,31.2,56.7,6.9,59,67,> 100,> 1,> 100,> 100,> 100,> 100,0.002,0.009,–,–,–
